Values quoted from earlier work in patent US12442091B2, “Electrochemical dehydrogenation, epoxidation, substitution, and halogenation of hydrocarbons and hydrocarbon derivatives” (Wisconsin Alumni Research Foundation, priority 2020, dated 2025).
In brackets after ≈: the same amount, converted by molar mass.

In the case of C=CC [propene], the solubility in water is given as 384 µg/mL (≈ 9.13 mM).
For CC(C)Br [2-bromopropane], the solubility in water is listed as 3200 µg/mL (≈ 26 mM).
